Where two headings read alike, the source gives them in different places.
Tests used:
[1] = molecular target: T1, human D4 dopamine receptor (Homo sapiens, UniProt P21917, DEL271-302/N396T/P18R); assay: [3H]spiperone binding to membranes of COS-7 cells transfected with human D4 receptor construct
T1 sequence (P21917 with tags, fused parts or gaps P18R/DEL271-302/N396T): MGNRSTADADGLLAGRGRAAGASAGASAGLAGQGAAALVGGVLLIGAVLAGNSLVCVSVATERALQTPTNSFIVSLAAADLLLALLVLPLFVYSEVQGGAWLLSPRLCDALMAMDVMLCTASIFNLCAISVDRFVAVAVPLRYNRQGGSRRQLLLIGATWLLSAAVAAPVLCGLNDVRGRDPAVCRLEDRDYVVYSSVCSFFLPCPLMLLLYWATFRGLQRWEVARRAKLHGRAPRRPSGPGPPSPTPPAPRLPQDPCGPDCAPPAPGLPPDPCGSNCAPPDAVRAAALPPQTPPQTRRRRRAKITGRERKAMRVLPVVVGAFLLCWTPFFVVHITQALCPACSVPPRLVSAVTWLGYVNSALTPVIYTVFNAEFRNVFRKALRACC

[2] = molecular target: T2, human D2 (long) (Homo sapiens, UniProt P14416); assay: D2 dissociation constants, human D2 receptor expressed in GH(4)ZR(7) cells; format: binding
T2 construct: expressed in transfected cells; host or cells: GH(4)ZR(7)
T2 sequence (P14416 whole entry): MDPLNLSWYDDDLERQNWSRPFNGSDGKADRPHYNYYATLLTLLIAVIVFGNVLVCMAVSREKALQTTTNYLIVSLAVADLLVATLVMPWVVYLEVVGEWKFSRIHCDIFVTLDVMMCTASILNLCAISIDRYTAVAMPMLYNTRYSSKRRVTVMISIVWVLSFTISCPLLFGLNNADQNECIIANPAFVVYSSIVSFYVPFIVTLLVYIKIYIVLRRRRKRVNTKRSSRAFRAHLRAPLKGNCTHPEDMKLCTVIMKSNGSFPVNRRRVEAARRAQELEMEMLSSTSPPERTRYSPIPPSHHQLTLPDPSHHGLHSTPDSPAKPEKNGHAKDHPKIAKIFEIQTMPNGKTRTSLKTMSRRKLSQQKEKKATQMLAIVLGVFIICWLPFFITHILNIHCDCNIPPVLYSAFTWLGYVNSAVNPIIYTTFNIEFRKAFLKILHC

[3] = molecular target: T1, human D4 dopamine receptor; assay: biochemical
[4] = molecular target: D2 in pig anterior pituitary homogenates (Sus scrofa, UniProt A0ACM8QMZ9); format: binding; conditions: for Ki: read-out: D2Ki
D2 in pig anterior pituitary homogenates, sequence (A0ACM8QMZ9 1-443): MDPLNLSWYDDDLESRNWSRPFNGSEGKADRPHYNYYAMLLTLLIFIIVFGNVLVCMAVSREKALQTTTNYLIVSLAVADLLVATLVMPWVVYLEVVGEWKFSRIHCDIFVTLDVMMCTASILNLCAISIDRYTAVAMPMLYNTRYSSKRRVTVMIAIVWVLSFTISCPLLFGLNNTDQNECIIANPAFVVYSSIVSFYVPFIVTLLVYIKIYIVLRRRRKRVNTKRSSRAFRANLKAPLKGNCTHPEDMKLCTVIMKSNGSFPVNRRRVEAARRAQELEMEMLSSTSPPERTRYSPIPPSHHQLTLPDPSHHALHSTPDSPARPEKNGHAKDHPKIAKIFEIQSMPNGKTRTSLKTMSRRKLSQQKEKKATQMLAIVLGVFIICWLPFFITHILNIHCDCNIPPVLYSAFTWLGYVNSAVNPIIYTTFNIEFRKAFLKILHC

[5] = molecular target: T1, human D4 dopamine receptor
[6] = T = Ki in pig anterior pituitary homogenates, no unit in table

Row | Compound | Ki [3] | Ki [4, 6] | also measured
1 | CC(C)C[C@H]1C(=O)N2CCC[C@H]2[C@]2(O)O[C@](NC(=O)[C@@H]3C=C4c5cccc6[nH]c(Br)c(c56)C[C@H]4N(C)C3)(C(C)C)C(=O)N12 [Bromocriptine] |  |  | Ki [1]: 128 nM; Ki [2]: 14 nM
2 | CCN1CCC[C@H]1CNC(=O)c1c(O)c(Cl)cc(Cl)c1OC [Raclopride] | 253 nM |  | 
3 | NCCc1c[nH]c2ccc(O)cc12 [Serotonin] | ~8000 nM |  | 
4 | CC(C)C[C@H]1C(=O)N2CCC[C@H]2[C@]2(O)O[C@](NC(=O)[C@@H]3C=C4c5cccc6[nH]cc(c56)C[C@H]4N(C)C3)(C(C)C)C(=O)N12 [Ergocriptine-S] |  | 0.4 nM | Ki ([1]; read-out: D4Ki): 55 nM
5 | CCCN1CCc2cccc3c2[C@H]1Cc1ccc(O)c(O)c1-3 [NPA] |  | 0.4 nM | Ki [5]: 5.5 nM
6 | CCc1cc(Cl)c(OC)c(C(=O)NC[C@@H]2CCCN2CC)c1O [Eticlopnde] |  |  | [formula] (ratio D2Ki to D4Ki) [4]: 0.17; Ki [1]: 0.52 nM
7 | NC1CCc2cc(O)c(O)cc2C1 (racemic) [ADTN-(±)] |  | 1.7 nM | Ki [5]: 33.7 nM
8 | Fencidopam |  | 2.8 nM | Ki [5]: 420 nM
9 | CCCN1CCC[C@@H]2Cc3n[nH]cc3C[C@H]21 [Quinpirole(−)] |  | 4.8 nM | 
10 | CN1CCc2cc(Cl)c(O)cc2[C@@H](c2ccccc2)C1 [SCH23390] | 1960 nM |  | 
11 | CCCN(CCc1cccs1)[C@H]1CCc2c(O)cccc2C1 [N-0437] |  | 0.7 nM | Ki [5]: 93 nM
12 | O=C(c1ccc(F)cc1)C1CCN(CCn2c(=O)[nH]c3ccccc3c2=O)CC1 [Ketanserin] | 147 nM |  | 
13 | CN1CCN(C2Cc3ccccc3Sc3ccc(Cl)cc32)CC1 (centres unmarked) [Octoclothepin-R] |  |  | Ki [4]: 13.5 nM
14 | CNc1cc(OC)c(C(=O)NC2CCN(Cc3ccccc3)C2C)cc1Cl (centres unmarked) [YM-09151-2] |  | 0.06 nM | 
15 | CCCN1CCO[C@@H]2c3cc(O)ccc3CC[C@H]21 [PHNO-(+)] |  | 1.2 nM | Ki [5]: 42 nM
16 | Oc1cc2c(cc1O)C(c1ccccc1)CNCC2 (centres unmarked) [SKF-38393] |  |  | Ki [1]: 1600 nM
17 | CSc1ccc2c(c1)N(CCC1CCCCN1C)c1ccccc1S2 (centres unmarked) [Thioridazine] | 12 nM |  | 
18 | OCCN1CCN(CCCN2c3ccccc3Sc3ccc(C(F)(F)F)cc32)CC1 [Fluphenazine] | 42 nM |  | 
19 | NC[C@H](O)c1ccc(O)c(O)c1 [(−) Noradrenaline] |  |  | Ki [4]: ~6000 nM
20 | CN1CCN(CCCN2c3ccccc3Sc3ccc(S(=O)(=O)N(C)C)cc32)CC1 [Thioproperazine] | 53 nM |  | 
21 | O=c1[nH]c2ccccc2n1C1CCN(CCCC(c2ccc(F)cc2)c2ccc(F)cc2)CC1 [Pimozide] |  |  | Ki [1]: 25 nM
